The record followed here is publication PMC8138767, “Intrinsically disordered substrates dictate SPOP subnuclear localization and ubiquitination activity” (The Journal of Biological Chemistry, 2021).

Positions count from the first letter of the chain named. In names and notes the source's numbering stands. Where no end group is shown, it is not given here. Where only a bound is given, the exact number is not on record here.

Assay [1] addresses T1, SPOP–MATH (residues 28–166) (Homo sapiens, UniProt O43791).
T1 construct: glutathione S-transferase (GST) (N, cleaved yes); 6X His (N, cleaved yes); made in house; host or cells: E. coli BL-21(DE3)
The assay can be described thus: Competition fluorescence anisotropy, displacement of f-Puc from SPOP–MATH. The format is binding. The conditions noted are these: competition FA; 40 nM f-Puc, 6 μM SPOP–MATH; 50 mM sodium phosphate pH 6.5, 50 mM NaCl, 5 mM DTT, 1% BSA, 0.01% Triton X-100; complete competitive binding model; ± standard deviation of three independent replicates (Table S4). The text has this:
An Escherichia coli codon-optimized DNA sequence encoding amino acids 205 to 283 of the human Pdx1 sequence (Pdx1-C) in the multiple cloning site of pET49b(+) was purchased from GeneArt (Thermo Fisher). The pET49b(+) backbone encodes for N-terminal glutathione S-transferase and 6X His tags, followed by a 3C protease recognition motif. In all experiments described herein, a mutant containing an exogenous tryptophan at the N terminus of the human Pdx1-C sequence was used for the purposes of quantitation. Mutations in Pdx1-C were generated by Q5 site-directed mutagenesis (New England Biolabs) with primers designed on NEBbasechanger.com according to the manufacturer protocol. Similarly, an E. coli–optimized DNA sequence encoding residues 28 to 166 of human SPOP (SPOP–MATH) was purchased in pET49b(+) from GeneArt. […] A plasmid encoding His–SUMO–SPOP human residues 28 to 359 harboring a tobacco etch virus protease recognition site directly N terminal to the beginning of the native SPOP protein sequence was generated previously ([21]).
All FA experiments were conducted in 50 mM sodium phosphate, pH 6.5, 50 mM sodium chloride, 5 mM DTT, 1% BSA, and 0.01% Triton X-100. In all experiments, the source of fluorescence signal was f-Puc purchased from GenScript, at a final concentration of 40 nM. For direct FA measurements, SPOP–MATH or SPOP28–359 of concentrations between 0.001 and 300 μM was added to wells of 96- or 384-well plates containing f-Puc and buffer. For competition-mode experiments, serial dilutions of each competitor (Pdx1 peptide or recombinant protein) were prepared ranging from ∼0.01 μM to ∼2 mM (concentration range varied based on peptide solubility) in wells of 96- or 384-well plates containing 40 nM f-Puc and 6 μM SPOP–MATH or SPOP28–359. The fluorescence polarization of each well was measured (from which FA was calculated) using either a TECAN Infinite M1000 Pro or BioTek Synergy 4 fluorometer. All experiments were performed with at least three technical replicates. FA data points were fit to a complete competitive binding model ([23]) to determine dissociation constants using in-house Python scripts (see Quantification and statistical analysis).
All titrations were performed in triplicate for rigor. Direct FA titrations were performed to determine the dissociation constants of the fluorescent probe toward SPOP constructs. Direct titration data were fit according to equation 6 in ([54]). Competition mode titration data were fit according to the fitting function in ([23]). Average dissociation constants and standard error from the mean for all constructs from competition experiments may be found in Table S4. The python scripts used in plotting and fitting may be found at https://github.com/idpemery/spop-pdx1.
For orientation: Fluorescence polarisation rises when a labelled molecule tumbles more slowly, as on binding a larger partner.

Assay [2] has as its system V5-SPOP in HeLa cells. The assay can be described thus: Immunofluorescence: V5-SPOP localization on coexpression of GFP–Pdx1 variants. The assay is classed as cell-based. The conditions noted are these: coexpressed with V5-SPOP, 24 h after transfection, three biological replicates. Here is the method: (§1) HeLa cells were cultured under sterile conditions with Dulbecco’s modified Eagle’s medium (DMEM) (Gibco) supplemented with 10% fetal bovine serum and antibiotics/antimycotics (Gibco) (see Table S5 for key reagents and resources). T-REx-293 cells (cat. no. R710-07) were obtained from Invitrogen. Cells were grown on DMEM supplemented with 10% fetal bovine serum (Gibco), GlutaMax (Gibco), and Penicillin-Streptomycin (Gibco) and kept under selection by 5 μg/ml blasticidin. All cells were grown at 37 °C under 5% CO2 and were mycoplasma free at the time the experiments were performed.
(§2) A plasmid encoding full-length human Pdx1 (amino acids 1-283) in pcDNA3.1 with a C-terminal GFP tag was purchased from GenScript. Full-length mouse SPOP (identical to the human sequence) with a V5 epitope tag in pcDNA3 was generated previously ([21]). The coding sequence for full-length mouse SPOP was inserted into pcDNA4/TO/myc (Invitrogen) for the T-REx system. pcDNA3-myc-CUL3 (cat no. 19893) and pcDNA–HA2–ROC1 (Rbx1) (cat no. 19897) were obtained from Addgene. pcDNA3 containing His-ubiquitin was a gift from Wenyi Wei.
For immunofluorescence experiments, 0.5 × 10^6 cells were seeded on borosilicate glass coverslips in 6-well plates. After 24 h, cells were transfected with 400 ng of each plasmid using the Qiagen Effectene transfection reagent according to the manufacturer protocol. 24 h after transfection, the cells were treated with 4% paraformaldehyde in PBS for 30 min at RT. Cells were permeabilized with 0.1% Triton X-100 in PBS (PBST) for 5 min at 21 °C, followed by blocking in 0.5% BSA in PBST for 1 h at 21 °C. Signal from GFP-tagged proteins was observed directly. Cells were stained in primary antibodies diluted in 0.5% BSA in PBST overnight at 4 °C with mouse anti-SC-35 (1:300, ab11826; Abcam) and chicken anti-V5 (1:300, NB600-379; Novus Biologicals). Cells were incubated with secondary antibodies for 2 h at 21 °C. The secondary antibodies used were goat anti-mouse Alexa Fluor 647 (1:250, A-21235; Thermo Fisher) and goat anti-chicken Alexa Fluor 555 (1:250, A-21437; Thermo Fisher). Cells on coverslips were treated with 300 nM 4′,6-diamidino-2-phenylindole (DAPI) for 5 min at 21 °C. Coverslips were mounted on glass slides with ProLong Diamond mounting reagent (Thermo Fisher) and cured before imaging on a Zeiss LSM 880 Upright microscope. All images were analyzed and prepared in Fiji ([53]).
All immunofluorescence data were averaged over three biological replicates. Cells not expressing both Pdx1 and SPOP were excluded from sampling. Raw images were collected in the Zeiss Zen software and then exported for viewing and analysis in Fiji. Nuclei of individual cells were designated manually in Fiji using the DAPI channel as a guide. The cells were binned based on whether SPOP was localized to nuclear speckles (puncta); cells with both diffuse and punctate SPOP signal were binned as “speckled.” The grayscale signal intensity of the green channel (Pdx1–GFP) was averaged over the DAPI-designated nuclear area. Next, the raw GFP intensity data points (one data point per cell analyzed) were plotted to generate a violin plot distribution. The average, minimum, and maximum values are shown by horizontal lines on the plot. Individual data points are also shown for rigor. […] All plotting and statistical tests were performed using in-house python scripts that can be found at https://github.com/idpemery/spop-pdx1.

For assay [3], the system named is SPOP-mediated ubiquitination in T-REx-293 cells. The experiment in a line: SPOP-mediated ubiquitination of Pdx1 variants (Ni-NTA pulldown, immunoblot). The format is cell-based. The conditions noted are these: SPOP–myc and GFP–Pdx1 coexpressed 24 h, then 20 μM MG132 or DMSO for 4 h, immunoblot (Fig. 6C). Here is the method:
We next sought to determine whether SPOP-driven ubiquitination of Pdx1 could occur outside of previously implicated droplets. Given the SPOP relocalization phenotype that we observe in cells that express SPOP and Pdx1, we hypothesized that the ubiquitination activity was occurring in the diffuse nucleoplasm and that optimal activity requires both SB sites. To test this hypothesis, we performed in cell ubiquitination assays with GFP–Pdx1 variants. SPOP–myc and GFP–Pdx1 were coexpressed for 24 h in T-REx-293 cells, followed by a 4-h treatment with 20 μM MG132 or dimethyl sulfoxide. Proteins modified with His-ubiquitin were enriched by pulldown on nickel-nitrilotriacetic acid (Ni-NTA) resin.
as §2
Ubiquitination and Western blots
(§3) T-REx-293 cells (Invitrogen) were seeded at a density of 0.8 × 10^6 per well in 6-well plates (tissue culture–treated plates (cat. no 3516, Corning)). After 24 h, cells were transfected with plasmids encoding Pdx1–GFP, SPOP–myc, His–ubiquitin, HA–Rbx1, and myc–CUL3 (as indicated) using the Qiagen Effectene transfection reagent. 24 h after transfection, the cells were treated with either dimethyl sulfoxide or 20 μM MG132 for 4 h before being harvested. Cells were lysed in buffer A (6 M guanidine HCl, 100 mM sodium phosphate, pH 8.0, and 10 mM imidazole). The lysates were sonicated, cleared, and incubated with Ni-NTA Agarose (Qiagen) for 3 h at RT, followed by 16 h at 4 °C. The beads were washed twice with buffer A and twice with a buffer composed of 1:3 buffer A:buffer T1 (buffer T1: 25 mM Tris HCl, pH 8.0, and 20 mM imidazole). The beads were finally transferred to buffer T1 and then boiled in the SDS-PAGE loading buffer containing 300 mM imidazole. Pdx1 stability assays were performed as described above, except that the cells were not treated with MG132. Cells expressing Pdx1–GFP or a variant were harvested 28 h after transfection, resuspended in 2x SDS-loading dye, and boiled for 5 min before SDS-PAGE analysis.
(§4) All proteins were resolved by SDS-PAGE. Separated proteins were analyzed by immunoblotting using either the ECL or the ECL Select Western blotting detection reagents (Amersham). The antibodies used were mouse anti-Pdx1 used at 1:500 for pulldown or 1:2000 for inputs (clone 26771, MAB2419, R&D Systems), mouse anti-myc (1:250, clone 9E10, Santa Cruz Biotechnology), and rabbit anti-GAPDH (1:8000, clone EPR1689, Abcam). horseradish peroxidase-conjugated secondary antibodies were sourced from Jackson ImmunoResearch Laboratories and used at 1:20,000 dilution (goat anti-rabbit IgG, 111-035-003 and goat anti-mouse, 115-035-003).
Background: Immunoblotting shows a protein as a band on a membrane.

Assay [4] relates to SPOP-dependent turnover in T-REx-293 cells. The assay can be described thus: SPOP-dependent Pdx1 stability (Western blot). The assay is classed as cell-based. The conditions noted are these: no MG132, harvested 28 h after transfection, Western blot (Fig. S3D). Here is the method:
In a similar experiment, the cells were not treated with a proteasome inhibitor to observe the SPOP-dependent stability of each Pdx1 variant.
as §3, §4

In assay [5] the test system is HeLa cells. The experiment in a line: Immunofluorescence: subcellular localization / phase separation of the protein itself. The format is cell-based. The conditions noted are these: SC-35 nuclear speckle marker. How it is done: as §1, §2
For immunofluorescence experiments, 0.5 × 10^6 cells were seeded on borosilicate glass coverslips in 6-well plates. After 24 h, cells were transfected with 400 ng of each plasmid using the Qiagen Effectene transfection reagent according to the manufacturer protocol. 24 h after transfection, the cells were treated with 4% paraformaldehyde in PBS for 30 min at RT. Cells were permeabilized with 0.1% Triton X-100 in PBS (PBST) for 5 min at 21 °C, followed by blocking in 0.5% BSA in PBST for 1 h at 21 °C. Signal from GFP-tagged proteins was observed directly. […] All images were analyzed and prepared in Fiji ([53]).
All immunofluorescence data were averaged over three biological replicates. […] Next, the raw GFP intensity data points (one data point per cell analyzed) were plotted to generate a violin plot distribution. […]

Assay [6] addresses T2, SPOP-MATH (human SPOP residues 28-166) (human, UniProt O43791 28-166).
T2 construct: N-terminal Gly-Pro-Gly cloning artefact left after 3C protease; speckle-type POZ protein (SPOP), human, MATH domain, residues 28-166; uniformly 15N-labelled for the NMR experiments; also called 15N-SPOP-MATH; source: E. coli BL-21(DE3), purified (Ni-NTA, 3C protease, second Ni-NTA, Sephacryl S100); not shown: GST, N-terminal, cleaved; His6, N-terminal, cleaved
The experiment in a line: fluorescence polarisation; competition fluorescence anisotropy: competitor (~0.01 μM to ~2 mM) displaces 40 nM f-Puc from 6 μM SPOP-MATH or SPOP28-359; complete competitive binding fit; 50 mM sodium phosphate pH 6.5, 50 mM NaCl, 5 mM DTT, 1% BSA, 0.01% Triton X-100. The conditions noted are these: both partners purified.

T2 sequence (O43791 other isoform, or with tags, fused parts or gaps): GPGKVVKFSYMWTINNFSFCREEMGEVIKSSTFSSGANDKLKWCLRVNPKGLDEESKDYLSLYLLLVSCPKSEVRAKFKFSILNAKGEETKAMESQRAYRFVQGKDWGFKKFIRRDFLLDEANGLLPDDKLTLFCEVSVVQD

Turning to “Ac-GSSSEADEMAKALEAELNDLM [Mock (Fcp1), mock peptide, residues 941-961, negative control, reference compound]”, the “KD (binding to SPOP-MATH)” value in assay [1] is listed as “no binding”.

Usually Kd stands for the concentration at which binding is half-saturated. In the case of Ac-LSASPQPSSVAPRRPQEPR [Pdx1–SBM2], in assay [1], the equilibrium dissociation constant (Kd) was more than 600 µM.

Turning to “GFP–Pdx1–ΔSBM1: GFP–Pdx1 with deletion of the higher-affinity SBM1 (residues 224–236)”, the “SPOP relocalization from nuclear speckles by Pdx1 variant” value in assay [2] is on record as “all cells, regardless of GFP–Pdx1–ΔSBM1 levels, contain punctate V5-SPOP”. Moreover, the “ubiquitination of Pdx1 variant” value in assay [3] was “impedes ubiquitination, as shown by no shift from the unmodified band”; in assay [3] (listed as Pdx1 lacking SBM1) it was “not observably ubiquitinated”. Moreover, in assay [4], the “SPOP-dependent Pdx1 stability” value was “more stable relative to the WT protein”.

B1: V5-SPOP: full-length mouse SPOP (identical to the human sequence) with a V5 epitope tag (protein, UniProt Q6ZWS8 1-374, looked up)
chain: MSRVPSPPPPAEMSSGPVAESWCYTQIKVVKFSYMWTINNFSFCREEMGEVIKSSTFSSGANDKLKWCLRVNPKGLDEESKDYLSLYLLLVSCPKSEVRAKFKFSILNAKGEETKAMESQRAYRFVQGKDWGFKKFIRRDFLLDEANGLLPDDKLTLFCEVSVVQDSVNISGQNTMNMVKVPECRLADELGGLWENSRFTDCCLCVAGQEFQAHKAILAARSPVFSAMFEHEMEESKKNRVEINDVEPEVFKEMMCFIYTGKAPNLDKMADDLLAAADKYALERLKVMCEDALCSNLSVENAAEILILADLHSADQLKTQAVDFINYHASDVLETSGWKSMVVSHPHLVAEAYRSLASAQCPFLGPPRKRLKQS
modifications: full-length V5 tag
For the molecule B1, the “V5-SPOP localization when expressed alone” value in assay [5] is recorded as “localizes to nuclear speckles”.

B2: W131G: substrate binding-impaired SPOP mutant (protein, UniProt O43791 1-374, looked up, variant W131G)
Speckle-type POZ protein: B1 chain with W131G
modifications: V5 tag
B2: the “ubiquitination of Pdx1 variant” value in assay [3] is given as “lack of any shift of the Pdx1 band”.

B3: Pdx1-SBM2 peptide (human Pdx1 residues 265-283) (peptide)
peptide: Ac-LSASPQPSSVAPRRPQEPR
notes: pancreatic and duodenal homeobox 1 (Pdx1), human, residues 265-283; also called Pdx1 265-283; source: synthetic peptide (Tufts University Core Facility, HPLC purified)
Turning to B3, the dissociation constant (Kd) in assay [6] is 630 µM.
